{"source": "patent US9109001B2", "about": "“3′,5′-cyclic phosphoramidate prodrugs for HCV infection” (priority 2012, dated 2015)", "key": {"[1]": {"tested_on": "HCV genotype 1b replicon", "experiment": "HCV Replicon Assay", "type": "cell-based", "conditions": "Zluc (Huh-7-derived) cells, HCV genotype 1b replicon, luciferase reporter, 72 hours, read-out: HCV Replicon EC50", "method": "Huh-7-derived cell line (Zluc) that harbors an HCV genotype 1b replicon and a luciferase reporter gene was grown in Dulbecco's Modified Eagle Medium (DMEM) supplemented with 10% fetal bovine serum, 2 mM GlutaMAX, 1% MEM nonessential amino acids, 100 IU/mL penicillin, 100 μg/mL streptomycin, and 0.5 mg/mL Geneticin® (G418). For dose response testing the cells were seeded in 96-well plates at 7.5×10^3 cells per well in a volume of 50 μL, and incubated at 37° C./5% CO2. Drug solutions were made up freshly in Huh-7 media as 2× stocks. Ten additional 5-fold dilutions were prepared from these stocks in DMEM without G418. At least three hours after Zluc cells were seeded, drug treatment was initiated by adding 50 μL of drug dilutions to the plates in duplicate. Final concentrations of drug ranged from 100 μM to […]. Cells were then incubated at 37° C./5% CO2. Alternatively, compounds were tested at two concentrations (1 μM and 10 μM). […] For this, media was removed from the plates via gentle tapping. Fifty microliters of ONE-glo luciferase assay reagent was added to each well. The plates were shaken gently for 3 min at room temperature and luminescence was measured on a Victor^3 V 1420 multilabel counter (Perkin Elmer) with a 1 second read time using a 700 nm cut-off filter. The EC50 values were calculated from dose response curves from the resulting best-fit equations determined by Microsoft Excel and XLfit 4.1 software. When screening at two fixed concentrations, the results were expressed as % inhibition at 1 μM and 10 μM."}, "[2]": {"experiment": "Stability in fresh human whole blood", "type": "in vitro ADME", "conditions": "0.5 μM, percent unchanged test compound", "method": "(§1) Stability in Fresh Whole Blood: Stability of test compounds were determined in fresh human whole blood with K2EDTA as the anticoagulant (stored refrigerated at 2-8° C. and used within 7 days of receipt). The experiment was conducted with three replicates for each time point. Whole blood, pre-incubated at 37° C. for 10-15 minutes, was fortified with a solution of test compound for a final concentration of 0.5 μM and mixed for 30 sec. At intervals (0, 0.5, 1 and 2 hr), three 50-μL aliquots were combined with 200 μL (each) of an ice-cold solution of the internal standard (carbutamide 500 ng/mL in acetonitrile). The samples were vortexed for 30 sec and then centrifuged at 16,100 g for 5 min. The supernatant was analyzed by LC-MS/MS. The MS peak area ratio of the test compound versus the internal standard was calculated and percent unchanged test compound was calculated for each time point using this ratio."}, "[3]": {"tested_on": "fresh human hepatocytes", "experiment": "Release of active metabolite in fresh human hepatocytes", "type": "in vitro ADME", "conditions": "10 μM", "method": "Assay for the Release of Active Metabolite in Primary Hepatocytes: Plates of fresh human and mouse hepatocytes were obtained on ice. The medium was removed and replaced with hepatocyte culture medium (William's E supplemented with penicillin-streptomycin, 1% L-glutamine, 1% insulin-transferrin-selenium and 0.1 μM Dexamethasone (Invitrogen) or with Invitro GRO HI medium complemented with Torpedo antibiotics (Celsis)). Cells were left overnight in an incubator at 37° C. to acclimatize to culture and the medium.\nHepatocyte incubations were conducted at a final volume of 0.5 mL hepatocyte culture medium/well (0.8 million cells/well for human and 0.5 million cells/well for mouse; 12 well plate no overlay, collagen coat). Culture medium from overnight incubation of cells was removed and replaced with fresh medium, pre-warmed to 37° C., containing 10 μM of test compound from a stock solution in DMSO (final DMSO concentration was 0.1%). At each specific time point, incubation medium was removed and cell monolayers were carefully washed two times with ice-cold PBS. Following the last wash, all PBS was carefully removed and 1.0 mL of extraction solution (ice-cold 70% methanol/30% water) added. Cells were scraped off and suspended in the extraction solution, transferred to 2 mL polypropylene microfuge tubes and intracellular contents extracted overnight at −20° C.\nAfter the overnight treatment the cellular extracts were prepared by centrifugation at 16,000×g for 10 min to remove cellular debris. The remaining sample was then dried using a refrigerated centrivap concentrator. Dry extracts were reconstituted in 1000 μL of HPLC-grade water and centrifuged at 16,000×g for 10 min. Aliquots (100 μL each) of the supernatant were transferred into a 96 well plate and internal standard (4 ng/mL final concentration) was added as the internal standard (IS) for LC-MS/MS analysis.\nThe incubation time points were 6, 24 and 48 hours for human hepatocytes and 1, 4, 8, 12 and 24 hours for mouse hepatocytes."}, "[4]": {"experiment": "Stability in human liver microsomes", "type": "in vitro ADME", "conditions": "10 μM, 1.0 mg/mL protein, NADPH, 60 min; percent unchanged", "method": "Stability in Liver and Intestinal Subcellular Fractions: Stability of test compounds were determined in subcellular fractions (microsomes and S9) of human liver and intestine in duplicate for each matrix. Pooled liver and intestinal microsomal, intestinal and liver S9 proteins (1.0 mg/mL), suspended in incubation buffer (100 mM potassium phosphate, pH 7.4, 5 mM MgCl2, and 0.1 mM EDTA), were preincubated for 5 min at 37° C. with 10 μM of a test compound from a 10 mM stock solution in DMSO (final DMSO concentration was 0.1%); the reaction was initiated by the addition of NADPH (3 mM final concentration). At specific times (0 and 60 min), 0.1 mL samples were taken and the reaction terminated by the addition of 4 volumes of stop solution (acetonitrile with 500 ng/mL carbutamide as an internal standard). The samples were vortexed for 30 sec and then centrifuged at 16,000 g for 10 min. 100 μL of supernatants were transferred to 96 deep-well plates preloaded with 100 μL distilled water and analyzed after mixing by LC-MS/MS. The MS peak area ratio of the test compound versus the internal standard was calculated and percent unchanged test compound over 60 minutes was calculated using this ratio."}, "[5]": {"experiment": "Stability in mouse blood", "type": "in vitro ADME", "conditions": "on ice, percent unchanged test compound", "method": "as §1\nThe stability in mouse blood was determined on ice at 0, 0.5 and 1 hr as above."}, "[6]": {"experiment": "Cytotoxicity evaluation (CellTiter-Blue Cell Viability Assay)", "type": "cell-based, human", "conditions": "human, Zluc cells, read-out: HCV Replicon CC50"}, "[7]": {"experiment": "Stability in simulated intestinal fluid", "type": "in vitro ADME", "conditions": "100 μM, 2 hours at 37° C.; percent of peak area at time zero", "method": "Stability in Simulated Gastric and Intestinal Fluids: Simulated gastric and intestinal fluids containing pepsin and pancreatin respectively were prepared according to the U.S. Pharmacopoeia USP291 procedure (www.pharmacopeia.cn/v29240/usp29nf24s0_ris1s126.html). Test compound (final concentration 100 μM) was incubated in duplicate in the appropriate fluid for 2 hours at 37° C. The samples were quenched with 200 μl cold acetonitrile, vortexed for 30 seconds and then centrifuged at 16,100 g for 10 min. The supernatants were analyzed by HPLC on a C-18 column with UV detection at 252 nm. The time 0 samples were prepared by adding SGF or SIF fluid to the quenching solvent followed by the test compound. Stability of the compound was determined by peak area the test compound after incubation and calculated as percent of the peak area observed at time zero."}, "[8]": {"tested_on": "Zluc cells", "experiment": "Cytotoxicity evaluation (CellTiter-Blue Cell Viability Assay)", "type": "cell-based, human", "conditions": "read-out: HCV Replicon CC50"}}, "note": "pEC50: −log10 of the molar value. Where two headings read alike, the source gives them in different places.", "data": [{"smiles": "CCOc1nc(N)nc2c1ncn2[C@@H]1O[C@@H]2COP(=O)(N[C@@H](C)COC(=O)C(C)C)O[C@H]2[C@@]1(C)F", "note": "(single isomer, unassigned) [Compound 3 Diastereomer 2]", "values": [{"measurement": "pEC50", "setting": "[1]; Hepatitis C virus, 72 h", "result": "> 6.60"}, {"measurement": "Stability WB_Human (37° C.; 2 hr)", "setting": "[2]", "result": 1, "unit": "%"}, {"measurement": "FHH TP AUC (pmol · hr/mill cells)", "setting": "[3]", "result": 1426, "unit": "pmol · hr/mill cells"}, {"measurement": "Stability HLM (1 hr)", "setting": "[4]", "result": 0.3, "unit": "%"}, {"measurement": "Stability WB_Mouse (ice; 1 hr)", "setting": "[5]", "result": 20, "unit": "%"}, {"measurement": "CC50", "setting": "[6]", "result": "> 50", "unit": "µM"}, {"measurement": "Stability SIF", "setting": "[7]", "result": 39, "unit": "%"}]}, {"smiles": "CCOc1nc(N)nc2c1ncn2[C@@H]1O[C@@H]2COP(=O)(N[C@@H](C)C(=O)OCC(C)C)O[C@H]2[C@@]1(C)F", "note": "(single isomer, unassigned) [Compound 4 Diastereomer 1]", "values": [{"measurement": "pEC50", "setting": "[1]; Hepatitis C virus, 72 h", "result": "> 6.60"}, {"measurement": "Stability WB_Human (37° C.; 2 hr)", "setting": "[2]", "result": 77, "unit": "%"}, {"measurement": "FHH TP AUC (pmol · hr/mill cells)", "setting": "[3]", "result": 1759, "unit": "pmol · hr/mill cells"}, {"measurement": "Stability WB_Mouse (ice; 1 hr)", "setting": "[5]", "result": 1, "unit": "%"}, {"measurement": "CC50", "setting": "[6]", "result": "> 50", "unit": "µM"}, {"measurement": "Stability SIF", "setting": "[7]", "result": 42, "unit": "%"}]}, {"smiles": "CCOC(=O)C(C)(C)NP1(=O)OC[C@H]2O[C@@H](n3cnc4c(OCC)nc(N)nc43)[C@](C)(F)[C@@H]2O1", "note": "(single isomer, unassigned) [Compound 7 Diastereomer 2]", "values": [{"measurement": "pEC50", "setting": "[1]", "result": "> 6.60"}, {"measurement": "Stability WB_Human (37° C.; 2 hr)", "setting": "[2]", "result": 36, "unit": "%"}, {"measurement": "FHH TP AUC (pmol · hr/mill cells)", "setting": "[3]", "result": 830, "unit": "pmol · hr/mill cells"}, {"measurement": "CC50", "setting": "[8]", "result": "> 50", "unit": "µM"}, {"measurement": "Stability SIF", "setting": "[7]", "result": 102, "unit": "%"}]}, {"smiles": "CCOc1nc(N)nc2c1ncn2[C@@H]1O[C@@H]2COP(=O)(NCCC(=O)OC(C)C)O[C@H]2[C@@]1(C)F", "note": "(single isomer, unassigned) [Compound 2 Diastereomer 2]", "values": [{"measurement": "pEC50", "setting": "[1]", "result": "6.00 to 6.60"}, {"measurement": "Stability WB_Human (37° C.; 2 hr)", "setting": "[2]", "result": 91, "unit": "%"}, {"measurement": "FHH TP AUC (pmol · hr/mill cells)", "setting": "[3]", "result": 336, "unit": "pmol · hr/mill cells"}, {"measurement": "Stability HLM (1 hr)", "setting": "[4]", "result": 5.7, "unit": "%"}, {"measurement": "Stability WB_Mouse (ice; 1 hr)", "setting": "[5]", "result": 60, "unit": "%"}, {"measurement": "CC50", "setting": "[8]", "result": "> 50", "unit": "µM"}, {"measurement": "Stability SIF", "setting": "[7]", "result": 91, "unit": "%"}]}, {"smiles": "CCOc1nc(N)nc2c1ncn2[C@@H]1O[C@@H]2COP(=O)(NCCC(=O)OC(C)C)O[C@H]2[C@@]1(C)F", "note": "(single isomer, unassigned) [Compound 2 Diastereomer 1]", "values": [{"measurement": "pEC50", "setting": "[1]; Hepatitis C virus, 72 h", "result": "6.00 to 6.60"}, {"measurement": "Stability WB_Human (37° C.; 2 hr)", "setting": "[2]", "result": 98, "unit": "%"}, {"measurement": "FHH TP AUC (pmol · hr/mill cells)", "setting": "[3]", "result": "BLD^a"}, {"measurement": "Stability HLM (1 hr)", "setting": "[4]", "result": 6.7, "unit": "%"}, {"measurement": "Stability WB_Mouse (ice; 1 hr)", "setting": "[5]", "result": 15, "unit": "%"}, {"measurement": "CC50", "setting": "[6]", "result": "> 50", "unit": "µM"}, {"measurement": "Stability SIF", "setting": "[7]", "result": 98, "unit": "%"}]}]}
